Earlier results, collected in patent US12544371B2, “Methods and compositions for treating acute lung injury and acute respiratory distress syndrome” (CalciMedica, Inc., priority 2020, dated 2026).
“Also recorded” adds a separate entry of the source.

What was measured:
[1] = mice, cited from earlier work
[2] = cited from earlier work
[3] = Gandhirajan et al. 2013; cited from earlier work

Question: For `Cc1nnsc1C(=O)Nc1ccc(-n2nc(C(F)(F)F)cc2C(F)(F)F)cc1` [BTP2, N-(4-(3,5-bis(trifluoromethyl)-1H-pyrazol-1-yl)phenyl)-4-methyl-1,2,3-thiadiazole-5-carboxamide], which “endothelial cell Ca2+ flux” value ([1]; delivered 2 hours after systemic endotoxin) is on record?
Answer: Its value is “striking reduction”.

Question: And the “measures of lung injury (endotoxin / lipopolysaccharide-induced)” value [1]?
Answer: Its value is “sharp decrease; also recorded: attenuate”.

Question: And the “endothelial lung dysfunction and lung inflammation” value ([2]; rat ventilator-induced lung injury)?
Answer: The value was “suppress”.

Question: And the ventilator-induced lung injury ([2]; rats)?
Answer: Its ventilator-induced lung injury is “attenuate”.

Question: What about the “infiltration of neutrophils into inflamed lung tissue” value [3] of the same compound?
Answer: The value was “reduced”.

Question: What about the “inflammatory cytokines associated with lung inflammation” value [3] of the same compound?
Answer: The value was “down-regulated”.

Question: And the “vascular permeability in lungs” value [3]?
Answer: Its value is “decreased”.
